The values that follow come from paper PMC4927298, “Olfactory channels associated with the Drosophila maxillary palp mediate short- and long-range attraction” (eLife, 2016).

Assay [1] concerns the target T1, Or71a (pb1B) (Drosophila melanogaster, UniProt Q9VUK5).
T1 construct: native receptor in pb1B maxillary palp neuron of wild-type flies; with Odorant receptor coreceptor
T1 sequence (Q9VUK5 1-378): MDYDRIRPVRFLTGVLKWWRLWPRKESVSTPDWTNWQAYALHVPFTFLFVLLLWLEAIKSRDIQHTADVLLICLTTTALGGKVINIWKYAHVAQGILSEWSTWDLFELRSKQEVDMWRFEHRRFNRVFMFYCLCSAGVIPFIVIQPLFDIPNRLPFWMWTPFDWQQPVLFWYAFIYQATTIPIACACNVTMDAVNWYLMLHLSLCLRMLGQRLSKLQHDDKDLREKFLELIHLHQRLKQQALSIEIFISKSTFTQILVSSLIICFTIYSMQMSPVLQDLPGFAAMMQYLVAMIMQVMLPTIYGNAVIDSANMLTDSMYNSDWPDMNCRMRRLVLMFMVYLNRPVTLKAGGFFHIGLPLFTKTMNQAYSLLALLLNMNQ
T1 sequence (Q9VNB5 1-486 partner): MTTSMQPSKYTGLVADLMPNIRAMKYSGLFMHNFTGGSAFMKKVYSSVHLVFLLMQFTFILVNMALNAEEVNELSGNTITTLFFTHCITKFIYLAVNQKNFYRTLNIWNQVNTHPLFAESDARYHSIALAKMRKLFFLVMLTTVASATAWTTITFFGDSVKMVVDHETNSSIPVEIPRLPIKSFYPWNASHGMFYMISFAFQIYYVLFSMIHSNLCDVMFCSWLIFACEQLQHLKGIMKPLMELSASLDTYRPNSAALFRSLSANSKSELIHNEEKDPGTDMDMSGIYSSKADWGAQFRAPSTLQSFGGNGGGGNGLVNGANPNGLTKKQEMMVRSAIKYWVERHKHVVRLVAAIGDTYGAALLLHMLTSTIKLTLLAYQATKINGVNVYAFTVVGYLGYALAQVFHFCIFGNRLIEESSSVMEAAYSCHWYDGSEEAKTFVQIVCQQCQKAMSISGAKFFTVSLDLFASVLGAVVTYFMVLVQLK
The assay can be described thus: single sensillum recording (SSR), dose-response. The following applies: native pb1B neuron, agonist; odor dilution. The source says:
single sensillum recording (SSR), dose-response on Or71a (pb1B)

For assay [2], the target named is T2, Or67a (Drosophila melanogaster, UniProt Q9VT08).
T2 construct: native receptor in antennal neuron (ab10) of wild-type flies; with Odorant receptor coreceptor
T2 sequence (Q9VT08 1-407): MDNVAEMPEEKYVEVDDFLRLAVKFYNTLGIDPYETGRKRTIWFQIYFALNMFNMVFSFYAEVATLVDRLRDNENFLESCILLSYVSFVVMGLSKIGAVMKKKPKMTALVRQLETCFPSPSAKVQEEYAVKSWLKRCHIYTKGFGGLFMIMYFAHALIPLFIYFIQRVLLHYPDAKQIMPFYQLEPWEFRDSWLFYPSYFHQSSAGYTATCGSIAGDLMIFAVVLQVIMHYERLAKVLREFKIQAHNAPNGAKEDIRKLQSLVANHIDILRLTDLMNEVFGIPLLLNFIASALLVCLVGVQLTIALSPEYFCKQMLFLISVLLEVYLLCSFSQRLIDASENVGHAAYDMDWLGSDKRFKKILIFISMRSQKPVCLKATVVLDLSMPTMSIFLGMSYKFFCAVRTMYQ
T2 sequence (Q9VNB5 1-486 partner): T1 sequence (Q9VNB5 1-486 partner)
The assay can be described thus: SSR and GC-SSR, dose-response. The note with it: native antennal neuron, agonist; odor dilution.

Assay [3] deals with T3, Or85d (pb3B) (Drosophila melanogaster, UniProt Q9VHQ2).
T3 construct: native receptor in pb3B maxillary palp neuron of wild-type flies; with Odorant receptor coreceptor
T3 sequence (Q9VHQ2 1-412): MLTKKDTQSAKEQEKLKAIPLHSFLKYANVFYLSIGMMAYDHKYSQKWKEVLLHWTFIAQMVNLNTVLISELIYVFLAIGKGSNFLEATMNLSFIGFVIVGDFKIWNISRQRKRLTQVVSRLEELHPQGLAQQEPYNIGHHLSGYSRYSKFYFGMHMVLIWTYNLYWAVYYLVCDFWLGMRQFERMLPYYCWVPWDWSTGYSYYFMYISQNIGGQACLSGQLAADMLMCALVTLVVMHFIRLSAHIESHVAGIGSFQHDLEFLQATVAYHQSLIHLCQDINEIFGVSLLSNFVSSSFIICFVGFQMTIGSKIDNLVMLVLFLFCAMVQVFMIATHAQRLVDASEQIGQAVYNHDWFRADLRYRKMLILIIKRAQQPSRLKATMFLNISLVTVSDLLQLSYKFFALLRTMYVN
T3 sequence (Q9VNB5 1-486 partner): T1 sequence (Q9VNB5 1-486 partner)
The assay can be described thus: single sensillum recording (SSR), dose-response. The note with it: native pb3B neuron, agonist; odor dilution. The source says: single sensillum recording (SSR), dose-response on Or85d (pb3B)

Assay [4] has as its target T4, Or46a (pb2B) (Drosophila melanogaster, UniProt P81919).
T4 construct: native receptor in pb2B maxillary palp neuron of wild-type flies; with Odorant receptor coreceptor
T4 sequence (P81919 1-381): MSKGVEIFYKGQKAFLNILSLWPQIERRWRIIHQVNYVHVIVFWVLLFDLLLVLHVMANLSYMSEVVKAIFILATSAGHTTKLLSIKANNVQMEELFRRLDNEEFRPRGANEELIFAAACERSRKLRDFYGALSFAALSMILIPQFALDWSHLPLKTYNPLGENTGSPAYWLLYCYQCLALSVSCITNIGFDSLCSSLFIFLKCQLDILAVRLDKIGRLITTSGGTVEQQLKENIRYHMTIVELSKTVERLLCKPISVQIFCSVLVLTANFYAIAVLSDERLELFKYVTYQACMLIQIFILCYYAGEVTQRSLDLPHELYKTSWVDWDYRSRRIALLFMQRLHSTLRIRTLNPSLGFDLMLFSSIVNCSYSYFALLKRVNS
T4 sequence (Q9VNB5 1-486 partner): T1 sequence (Q9VNB5 1-486 partner)
The assay can be described thus: single sensillum recording (SSR), dose-response. The note with it: native pb2B neuron, agonist; odor dilution. The source says: single sensillum recording (SSR), dose-response on Or46a (pb2B)

In assay [5] the target is T5, Or59c (pb3A) (Drosophila melanogaster, UniProt Q9W1P7).
T5 construct: native receptor in pb3A maxillary palp neuron of wild-type flies; with Odorant receptor coreceptor
T5 sequence (Q9W1P7 1-411): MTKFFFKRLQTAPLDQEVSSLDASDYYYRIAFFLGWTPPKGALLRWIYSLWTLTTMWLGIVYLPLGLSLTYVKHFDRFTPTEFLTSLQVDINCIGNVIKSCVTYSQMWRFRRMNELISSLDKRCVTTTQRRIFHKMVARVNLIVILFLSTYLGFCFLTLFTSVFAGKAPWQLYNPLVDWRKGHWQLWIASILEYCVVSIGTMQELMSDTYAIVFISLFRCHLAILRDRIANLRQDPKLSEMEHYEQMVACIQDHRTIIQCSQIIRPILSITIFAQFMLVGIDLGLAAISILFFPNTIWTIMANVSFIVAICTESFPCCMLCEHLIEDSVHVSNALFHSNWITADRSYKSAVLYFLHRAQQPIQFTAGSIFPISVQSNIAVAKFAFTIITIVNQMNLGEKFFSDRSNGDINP
T5 sequence (Q9VNB5 1-486 partner): T1 sequence (Q9VNB5 1-486 partner)
The assay can be described thus: single sensillum recording (SSR), dose-response. The following applies: native pb3A neuron, agonist; odor dilution. The text has this: single sensillum recording (SSR), dose-response on Or59c (pb3A)

Assay [6] has as its target T6, Or85a (Drosophila melanogaster, UniProt Q9VHS4).
T6 construct: native receptor in antennal ab2B neuron of wild-type flies; with Odorant receptor coreceptor
T6 sequence (Q9VHS4 1-397): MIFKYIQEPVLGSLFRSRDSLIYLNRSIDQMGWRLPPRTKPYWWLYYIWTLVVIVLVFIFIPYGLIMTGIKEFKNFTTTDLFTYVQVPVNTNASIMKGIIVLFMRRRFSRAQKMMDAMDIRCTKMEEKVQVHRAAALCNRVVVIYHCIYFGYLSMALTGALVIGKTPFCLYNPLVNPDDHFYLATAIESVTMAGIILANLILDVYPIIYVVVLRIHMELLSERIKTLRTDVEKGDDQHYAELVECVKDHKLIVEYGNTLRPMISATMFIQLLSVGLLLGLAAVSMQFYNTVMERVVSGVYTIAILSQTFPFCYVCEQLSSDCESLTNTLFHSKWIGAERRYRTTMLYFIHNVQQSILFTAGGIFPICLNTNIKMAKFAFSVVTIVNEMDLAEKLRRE
T6 sequence (Q9VNB5 1-486 partner): T1 sequence (Q9VNB5 1-486 partner)
The assay is described as follows: SSR and GC-SSR, dose-response. The note with it: native antennal ab2B neuron, agonist; odor dilution.

The target of assay [7] is T7, Or42a (pb1A) (Drosophila melanogaster, UniProt Q9V9I2).
T7 construct: native receptor in pb1A maxillary palp neuron of wild-type flies; neuron-receptor match not tested by expression; with Odorant receptor coreceptor
T7 sequence (Q9V9I2 1-406): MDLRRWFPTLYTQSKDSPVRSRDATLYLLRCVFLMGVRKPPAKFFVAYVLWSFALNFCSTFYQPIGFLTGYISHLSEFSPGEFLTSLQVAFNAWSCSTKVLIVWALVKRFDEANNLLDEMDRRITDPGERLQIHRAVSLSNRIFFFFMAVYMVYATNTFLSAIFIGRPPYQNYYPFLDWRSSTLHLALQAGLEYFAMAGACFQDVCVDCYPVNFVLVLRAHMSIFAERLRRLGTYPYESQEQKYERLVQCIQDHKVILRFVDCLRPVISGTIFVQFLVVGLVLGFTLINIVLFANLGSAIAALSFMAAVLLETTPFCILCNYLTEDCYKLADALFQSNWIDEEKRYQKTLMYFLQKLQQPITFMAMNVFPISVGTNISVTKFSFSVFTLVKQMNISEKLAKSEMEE
T7 sequence (Q9VNB5 1-486 partner): T1 sequence (Q9VNB5 1-486 partner)
The assay is described as follows: single sensillum recording (SSR), dose-response. The note with it: native pb1A neuron, agonist; odor dilution. The text has this: single sensillum recording (SSR), dose-response on Or42a (pb1A)

SMILES strings stand for the structures.

Take `CCc1ccc(O)c(OC)c1` [4-ethylguaiacol]: the Detection threshold in assay [1] is listed as 10^-7 dilution.

As for `CCC(=O)OCCc1ccccc1` [Phenethyl propionate], the results for the Detection threshold in assay [2] and in assay [3] were 10^-5 dilution and 10^-7 dilution, respectively. For `Oc1ccccc1` [Phenol], the Detection threshold in assay [4] is on record as 10^-7 dilution. With `CC(=O)OCCc1ccccc1` [2-Phenethyl acetate], the Detection threshold in assay [3] is reported as 10^-7 dilution. Turning to `C=CCc1ccc(OC)c(OC)c1` [Methyleugenol], in assay [1], the Detection threshold was 10^-7 dilution. Consider `CCCCOC(=O)CC(C)O` (stereo not drawn) [Butyl 3-hydroxy butyrate], for which the Detection threshold in assay [5] is listed as 10^-4 dilution; in assay [6] it was 10^-5 dilution. Regarding `C=CCC(=O)CC` [5-hexen-3-one], in assay [7], the Detection threshold is 10^-7 dilution.
